Assay results from US20050176759A1, “7-sulfonyl-3-benzazepine derivatives as modulators of the dopamine receptor and their use for the treatment cns disorders” (priority 2001, published 2005).

Molecular target: T1, serotonin 5-HT6 receptor (Homo sapiens, UniProt P50406)
T1 construct: expressed in transfected cells
Test: Binding experiments on cloned 5-HT6 receptors (procedures of WO 98/27081)
Description: Binding Experiments on Cloned […] Receptors
Compounds can be tested following the procedures outlined in WO 98/27081.

T1 sequence (P50406 whole entry): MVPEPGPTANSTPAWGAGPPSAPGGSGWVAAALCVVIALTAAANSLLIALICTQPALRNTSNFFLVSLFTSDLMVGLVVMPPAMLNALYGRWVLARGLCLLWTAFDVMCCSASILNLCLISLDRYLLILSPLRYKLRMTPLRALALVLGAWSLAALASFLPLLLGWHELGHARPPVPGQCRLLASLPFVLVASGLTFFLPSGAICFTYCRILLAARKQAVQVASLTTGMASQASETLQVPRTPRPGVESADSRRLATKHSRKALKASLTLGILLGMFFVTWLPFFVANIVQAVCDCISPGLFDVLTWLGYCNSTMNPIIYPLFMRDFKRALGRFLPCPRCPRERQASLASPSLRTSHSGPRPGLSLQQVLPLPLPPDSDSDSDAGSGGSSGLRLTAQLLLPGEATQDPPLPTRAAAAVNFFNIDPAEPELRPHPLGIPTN

O=S(=O)(c1ccc2c(c1)CCNCC2)c1c[nH]c2ccccc12 [Example 43, 7-(3-(1H-indolyl)sulfonyl)-2,3,4,5-tetrahydro-1H-3-benzazepine]
Ki: 0.1 to 1 nM
